Legend:
rice = experiment: Pouch study of rice, imidacloprid seed treatment with PESA salt solution in pouch; format: in vivo; details: for shoot length of rice: control 3.3; for root length of rice: control 10.7
Description: (§1) Seed was sieved with a screen of hole size appropriate to remove broken seeds and small trash. Cracked or otherwise damaged seeds were removed. The seed was well mixed, and 50 g samples were weighed into small plastic trays. Seed treatment slurries were made by adding measured amounts of the active ingredients to sufficient water to bring them up to a standard volume, typically 2 ml. A fungicide (Maxim XL; Syngenta Agricultural Products, Greensboro, N.C.), a polymeric binder (CF-Clear; Becker-Underwood, Ames, Iowa), and a colorant (Color Coat Red; Becker-Underwood, Ames, Iowa) were also included in the slurry at label rates. A small aliquot of this slurry was applied to the seed using the Hege 11 coater (Wintersteiger, Salt Lake City, Utah) with a six-inch bowl. The slurry was deposited drop-wise on the spinning disk atomizer using a syringe.
(§2) Seeds were placed in germination pouches consisting of germination paper hydrated with sterile water that was an insert in a gas-permeable 16×14 cm plastic pouch (CYG Pouch; Mega International, St. Paul, Minn.). In these examples, in pouch solution evaluation, clothianidin and PESA sodium salt were added to the sterile water in the pouch. Alternatively, imidacloprid or dinotefuran and PESA sodium salt were added to the sterile water in the pouch. The pouches were arranged in a completely randomized block design in growth racks and placed in 19-liter polycarbonate food storage containers (Rubbermaid Commercial Products, Winchester, Va.). The sealed containers were held in an upright growth cabinet maintained at 25 C with a 12 hour light: 12 hour dark photoperiod. After 6 days, the containers were removed from the growth cabinet, and the lengths of the roots and shoot were measured.
Root lengths of the control and combination treatment of 200 grams imidacloprid/100 pounds of seed with 50 mg/liter PESA salt were similar.

cotton [1] = experiment: Continuous exposure pouch study, PESA salt and imidacloprid on cotton; format: in vivo
Description: as §2, with “measured. […] Root lengths of the control and combination treatment of imidacloprid with 100 mg/liter PESA salt were similar.” for “measured.”

soybean = experiment: Field study, seed treatment of soybean; format: in vivo
Description: (§3) For the field studies, the seed was treated with a seed treatment formulation containing clothianidin. The rate of clothianidin was dependent on the crop species. The seed treatment formulations were amended with the appropriate concentrations of either PESA or the sodium salt of PESA. Crops were planted and grown under standard agricultural practices, and evaluated at the times indicated. The sodium salt of PESA was prepared as described above, and was used in seed treatment either alone or in the presence of clothianidin. Soybean seed was treated with 0 or 50 grams of clothianidin/100 kg (220 pound) of seed and with 0, 22, 55, or 137.5 grams PESA salt/100 kg seed.

maize = experiment: Field study, seed treatment of maize; format: in vivo, Zea mays
Description: For the field studies, the seed was treated with a seed treatment formulation containing clothianidin. The rate of clothianidin was dependent on the crop species. The seed treatment formulations were amended with the appropriate concentrations of either PESA or the sodium salt of PESA. Crops were planted and grown under standard agricultural practices, and evaluated at the times indicated. The PESA or the sodium salt of PESA was prepared as described above, and was used in seed treatment either alone or in the presence of clothianidin. Maize (Zea mays) seed was treated with 0 or 0.25 milligrams of clothianidin/seed and with 0, 22, 55, or 137.5 grams PESA salt/100 kg seed.

canola = experiment: Field study, seed treatment of canola; format: in vivo, Brassica napus
Description: as §3, with “Canola (Brassica napus)” for “Soybean”, “400” for “50”

cotton [2] = experiment: Continuous exposure pouch study, PESA salt and clothianidin on cotton; format: in vivo
Description: as §2

cotton [3] = experiment: Pouch assay of cotton after PESA salt and clothianidin seed treatments; format: in vivo; details: seed treatment; for shoot length of cotton: control 3.7; for root length of cotton: control 9.6
Description: as §1, §2

sorghum = experiment: Field study, seed treatment of sorghum; format: in vivo
Description: as §3, with “Sorghum” for “Soybean”, “200” for “50”

[4] = imidacloprid 200 g/100 pounds of seed alone
[5] = imidacloprid 400 g/100 pounds of seed alone
[6] = imidacloprid 800 g/100 pounds of seed alone
[7] = clothianidin 182 g/100 pounds of seed alone
[8] = clothianidin 364 g/100 pounds of seed alone

Structure (SMILES): O=[N+]([O-])N=C1NCCN1Cc1ccc(Cl)nc1 [Imidacloprid, (EZ)-1-(6-chloro-3-pyridylmethyl)-N-nitroimidazolidin-2-ylideneamine]
- shoot length of rice (rice; [4]): 3.6 cm
- root length of rice (rice; [4]): 9.6 cm
- shoot length of rice (rice; [5]): 3.3 cm
- root length of rice (rice; [5]): 8.9 cm
- shoot length of rice (rice; [6]): 3.6 cm
- root length of rice (rice; [6]): 8.3 cm
- effect on rice root length (rice; seed treatment with imidacloprid alone): decreased the root length in a dose-dependent manner
- effect on cotton root length (cotton [1]; continuous exposure pouch, imidacloprid 1000 mg/liter alone): decreased root length
- effect on cotton shoot length (cotton [1]; imidacloprid alone): not affected
- shoot length of cotton (cotton [1]; in pouch, imidacloprid 1000 mg/liter alone, control 6.2): 6.0 cm
- root length of cotton (cotton [1]; in pouch, imidacloprid 1000 mg/liter alone, control 13.3): 7.7 cm

Structure (SMILES): CN/C(=N\[N+](=O)[O-])NCc1cnc(Cl)s1 [Clothianidin, (E)-1-(2-chloro-1,3-thiazol-5-ylmethyl)-3-methyl-2-nitroguanidine, reference compound]
- average plant height of soybean (soybean; 66 days after planting, clothianidin 50 g/100 kg seed alone, control 23.8): 21.6 inches
- effect on soybean plant height (soybean; clothianidin alone, 50 g/100 kg seed): reduced plant height as compared to the control
- vigor rating of maize plants, Vigor (1-5) (maize; 27 days after planting, clothianidin 0.25 mg/seed alone, control 3.6): 3.1
- effect on maize plant vigor (maize; clothianidin alone, 0.25 mg/seed): reduced plant vigor as compared to the control
- vigor rating (1 = low and 5 = high) of canola plants (canola; 19 days after planting, clothianidin 400 g/100 kg seed alone, control 3.8): 2.5
- effect on canola plant vigor (canola; clothianidin alone, 400 g/100 kg seed): reduced plant vigor as compared to the control
- effect on cotton root length (cotton [2]; continuous exposure pouch, substance alone): decreased the length of the root
- effect on cotton shoot length (cotton [2]; continuous exposure pouch, clothianidin alone): not affected
- shoot length of cotton (cotton [2]; in pouch, clothianidin 1000 mg/liter alone, control 6.1): 6.1 cm
- root length of cotton (cotton [2]; in pouch, clothianidin 1000 mg/liter alone, control 11.4): 8.9 cm
- effect on cotton shoot length (cotton [3]; Table 2): increased cotton shoot length
- shoot length of cotton (cotton [3]; [7]): 4.1 cm
- root length of cotton (cotton [3]; [7]): 7.8 cm
- shoot length of cotton (cotton [3]; [8]): 4.2 cm
- root length of cotton (cotton [3]; [8]): 7.9 cm
- effect on cotton root length (cotton [3]; clothianidin alone 182 or 364 g/100 pounds of seed): reduced cotton root length
- root dry weight of a sample of 10 sorghum plants (sorghum; 73 days after planting, clothianidin 200 g/100 kg seed alone, control 148.5): 108.7 grams
- effect on sorghum root dry weight (sorghum; clothianidin alone, 200 g/100 kg seed): reduced root dry weight as compared to the control

Structure (SMILES): O=C(O)CCC(=O)NCCc1ccccc1 [PESA, N-(2-phenylethyl)succinamic acid]
- safening of maize (maize; conclusion from Table 12): safened maize against clothianidin-induced vigor reduction
